Measured values reported in patent publication US20220009920A1 (GB005, Inc., priority 2020, published 2022).

Assays:
AXL = target: T1, AXL (Homo sapiens, UniProt P30530); assay: Large panel kinase profiling; format: biochemical; conditions: 1 μM test article, 1 mM ATP
T1 sequence (P30530 26-894): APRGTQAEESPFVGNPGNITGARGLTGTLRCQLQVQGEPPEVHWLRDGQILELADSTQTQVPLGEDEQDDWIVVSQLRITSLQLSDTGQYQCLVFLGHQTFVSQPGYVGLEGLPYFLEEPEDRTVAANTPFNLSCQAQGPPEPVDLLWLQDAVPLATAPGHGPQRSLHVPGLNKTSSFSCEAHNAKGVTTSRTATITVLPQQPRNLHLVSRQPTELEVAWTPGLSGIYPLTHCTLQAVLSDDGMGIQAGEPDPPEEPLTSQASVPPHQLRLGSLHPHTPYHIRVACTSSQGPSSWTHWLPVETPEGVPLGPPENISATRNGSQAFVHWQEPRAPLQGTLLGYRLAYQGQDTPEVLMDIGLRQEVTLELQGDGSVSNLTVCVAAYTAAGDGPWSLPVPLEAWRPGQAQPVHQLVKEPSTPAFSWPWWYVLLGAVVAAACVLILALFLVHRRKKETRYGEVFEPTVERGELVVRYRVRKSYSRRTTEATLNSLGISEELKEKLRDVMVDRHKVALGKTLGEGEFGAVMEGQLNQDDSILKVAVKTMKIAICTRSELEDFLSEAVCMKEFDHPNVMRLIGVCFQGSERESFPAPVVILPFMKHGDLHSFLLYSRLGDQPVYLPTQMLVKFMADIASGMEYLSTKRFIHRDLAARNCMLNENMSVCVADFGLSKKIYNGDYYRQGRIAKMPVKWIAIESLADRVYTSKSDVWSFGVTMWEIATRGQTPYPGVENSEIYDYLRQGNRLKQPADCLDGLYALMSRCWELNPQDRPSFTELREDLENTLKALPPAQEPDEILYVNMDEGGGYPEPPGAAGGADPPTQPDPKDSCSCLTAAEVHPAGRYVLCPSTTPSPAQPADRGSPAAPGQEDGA
How it was run: (§1)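 Reactions contain 1 mM ATP and 1 μM test article; the CSox peptide sensor reports phosphorylation as fluorescence gain. Temperature is held at 30° C. while signal (360 nm excitation, 485 nm emission) is recorded every 1 min.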

EPHA8 = target: T2, EPHA8 (Homo sapiens, UniProt P29322); assay: Large panel kinase profiling; format: biochemical; conditions: 1 μM test article, 1 mM ATP
T2 sequence (P29322 28-1005): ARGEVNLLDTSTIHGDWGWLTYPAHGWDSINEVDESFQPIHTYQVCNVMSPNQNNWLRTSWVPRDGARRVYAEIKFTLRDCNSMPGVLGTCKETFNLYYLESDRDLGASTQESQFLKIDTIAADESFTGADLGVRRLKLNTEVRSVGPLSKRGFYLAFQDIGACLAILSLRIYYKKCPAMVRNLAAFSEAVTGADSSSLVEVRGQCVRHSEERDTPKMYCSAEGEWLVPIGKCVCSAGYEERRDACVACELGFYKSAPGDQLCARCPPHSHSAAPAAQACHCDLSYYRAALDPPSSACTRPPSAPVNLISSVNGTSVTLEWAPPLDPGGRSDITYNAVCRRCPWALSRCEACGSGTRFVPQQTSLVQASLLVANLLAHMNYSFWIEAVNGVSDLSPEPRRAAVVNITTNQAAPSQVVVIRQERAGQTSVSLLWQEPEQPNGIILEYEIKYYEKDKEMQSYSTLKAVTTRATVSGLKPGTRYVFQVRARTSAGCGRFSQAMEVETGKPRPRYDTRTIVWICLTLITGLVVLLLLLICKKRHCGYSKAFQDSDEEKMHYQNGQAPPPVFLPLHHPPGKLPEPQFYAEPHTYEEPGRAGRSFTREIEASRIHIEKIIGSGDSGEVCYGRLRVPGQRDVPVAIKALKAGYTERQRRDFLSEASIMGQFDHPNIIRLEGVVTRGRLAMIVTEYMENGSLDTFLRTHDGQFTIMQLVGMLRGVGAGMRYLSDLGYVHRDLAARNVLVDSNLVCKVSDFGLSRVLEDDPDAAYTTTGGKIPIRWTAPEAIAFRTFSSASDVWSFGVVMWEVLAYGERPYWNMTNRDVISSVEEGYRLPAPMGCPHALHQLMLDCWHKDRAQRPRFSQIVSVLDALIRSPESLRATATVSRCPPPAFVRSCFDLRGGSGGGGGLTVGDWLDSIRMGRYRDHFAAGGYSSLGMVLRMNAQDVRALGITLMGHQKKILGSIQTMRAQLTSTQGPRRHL
How it was run: as §1

Compound | inhibition at 1 µM (AXL) | inhibition at 1 µM (EPHA8)
C=CC(=O)N1CCCC(c2c(F)cc(C(N)=O)c3[nH]c4c(c23)CCCCC4)C1 (single isomer, unassigned) [Compound 5-6] | -20.3% | 10%
C=CC(=O)N1CCC[C@@H](c2c(F)cc(C(N)=O)c3[nH]c4c(c23)CC2(CC4)CC2)C1 [Compound 6-2, (S)-5-(1-acryloylpiperidin-3-yl)-6-fluoro-1,2,4,9-tetrahydrospiro[carbazole-3,1′-cyclopropane]-8-carboxamide] | 1.5% | -15.3%
C=CC(=O)N1CCC[C@@H](c2c(F)cc(C(N)=O)c3[nH]c4c(c23)CCC4)C1 [Compound 10-2, (S)-8-(1-acryloylpiperidin-3-yl)-7-fluoro-1,2,3,4-tetrahydrocyclo-penta[b]indole-5-carboxamide] | -1.7% | -19.1%
